From ChEMBL document CHEMBL3217609, “Discovery and characterization of novel potent PARP-1 inhibitors endowed with neuroprotective properties: From TIQ-A to [sequence]” (Medchemcomm, 2011) come the findings set out here.

Data set [1] deals with T1, Poly [ADP-ribose] polymerase 1 (Homo sapiens, UniProt P09874). Briefly: Inhibition of human PARP1 in HEK293 cells assessed as prevention of in MNNG-induced ATP depletion. The data set is classed as cell-based.
In the next data set the test system is Cortical neurone. Briefly: Neuroprotective activity in mouse mixed cortical cells assessed as reduction in oxygen-glucose deprivation-induced LDH release. The data set is classed as functional, cell-based. Background: LDH in the medium is a marker of cell lysis.
In data set [2] the target is T1, Poly [ADP-ribose] polymerase 1. Briefly: Inhibition of human recombinant PARP1 by fluorescence based multiwell assay.
Data set [3] deals with Poly [ADP-ribose] polymerase 2 (Mus musculus, UniProt O88554). Briefly: Inhibition of mouse recombinant PARP2 assessed as radioactivity incorporated from [adenine-2,8-3H]NAD into proteins by liquid scintillation spectrometry.
Data set [4] addresses T2, Poly [ADP-ribose] polymerase tankyrase-1 (Homo sapiens, UniProt O95271).
T2 sequence (O95271 whole entry): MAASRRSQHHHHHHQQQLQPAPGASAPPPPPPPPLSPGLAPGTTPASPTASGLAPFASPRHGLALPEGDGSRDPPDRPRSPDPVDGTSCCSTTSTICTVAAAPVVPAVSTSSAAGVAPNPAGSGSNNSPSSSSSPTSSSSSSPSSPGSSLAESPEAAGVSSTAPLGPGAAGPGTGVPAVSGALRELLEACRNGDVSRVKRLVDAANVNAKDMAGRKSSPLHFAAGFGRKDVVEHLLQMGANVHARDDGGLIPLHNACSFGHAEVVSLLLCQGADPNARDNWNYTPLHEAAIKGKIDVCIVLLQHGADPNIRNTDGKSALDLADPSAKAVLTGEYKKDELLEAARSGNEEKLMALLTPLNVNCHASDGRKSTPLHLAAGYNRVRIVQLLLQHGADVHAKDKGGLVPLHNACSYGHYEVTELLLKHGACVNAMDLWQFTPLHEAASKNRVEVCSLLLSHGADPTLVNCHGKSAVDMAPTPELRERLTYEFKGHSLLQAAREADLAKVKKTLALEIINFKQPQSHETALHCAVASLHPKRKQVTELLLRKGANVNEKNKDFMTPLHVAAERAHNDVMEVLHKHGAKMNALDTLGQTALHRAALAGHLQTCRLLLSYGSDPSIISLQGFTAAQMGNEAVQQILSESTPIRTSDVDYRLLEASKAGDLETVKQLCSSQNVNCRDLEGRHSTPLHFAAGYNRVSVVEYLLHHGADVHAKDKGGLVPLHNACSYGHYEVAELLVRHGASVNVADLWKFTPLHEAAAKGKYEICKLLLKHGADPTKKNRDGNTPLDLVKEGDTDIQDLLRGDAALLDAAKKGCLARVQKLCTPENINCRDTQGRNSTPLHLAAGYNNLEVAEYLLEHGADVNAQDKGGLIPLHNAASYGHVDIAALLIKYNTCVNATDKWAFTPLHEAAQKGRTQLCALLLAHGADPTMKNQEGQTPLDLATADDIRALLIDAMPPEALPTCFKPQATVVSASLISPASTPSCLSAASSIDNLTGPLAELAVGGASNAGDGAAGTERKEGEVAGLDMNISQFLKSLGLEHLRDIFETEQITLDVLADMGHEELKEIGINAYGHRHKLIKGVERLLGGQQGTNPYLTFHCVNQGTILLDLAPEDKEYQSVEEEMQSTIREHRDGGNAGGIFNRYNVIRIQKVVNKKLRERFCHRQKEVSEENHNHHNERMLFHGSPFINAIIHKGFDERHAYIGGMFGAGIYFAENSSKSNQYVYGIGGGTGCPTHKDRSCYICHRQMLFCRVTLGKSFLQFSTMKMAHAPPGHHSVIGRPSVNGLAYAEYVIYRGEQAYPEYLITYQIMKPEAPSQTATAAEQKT
The data set can be described thus: Inhibition of tankyrase-1 function in human HeLa cells. The data set is classed as cell-based.

The nature of data set [5]: Clearance in rat hepatocytes assessed per 10^6 cells. The following applies: read-out: CLH. The data set is classed as ADME, cell-based, Hepatocyte.
The nature of data set [6]: Clearance in human hepatocytes assessed per 10^6 cells. The following applies: read-out: CLH. The data set is classed as ADME, cell-based, Hepatocyte.
The subject of data set [7] is Rattus norvegicus. The data set can be described thus: Clearance in Sprague-Dawley rat at 10 mg/kg, iv. The following applies: in vivo. The data set is classed as ADME, organism-based. Also noted: dose 10 mg/kg, route intravenous.
A short description of data set [8]: Volume of distribution in Sprague-Dawley rat at 10 mg/kg, iv. To be noted: in vivo. The data set is classed as ADME, organism-based. Also noted: dose 10 mg/kg, route intravenous.
Data set [9] can be described thus: AUC (0 to infinity) in Sprague-Dawley rat at 10 mg/kg, iv. Format: ADME, organism-based. Also noted: time infinity, dose 10 mg/kg, route intravenous. The following applies: plasma.
Data set [10] can be described thus: Half life in Sprague-Dawley rat at 10 mg/kg, iv. The data set is classed as ADME, organism-based. Set-up: dose 10 mg/kg, route intravenous. The following applies: in vivo.
The nature of data set [11]: Ratio of drug level in brain to plasma in Sprague-Dawley rat at 10 mg/kg, iv. The data set is classed as ADME, organism-based. Set-up: dose 10 mg/kg, route intravenous. To be noted: read-out: BPR.
Data set [12] can be described thus: Cmax in Sprague-Dawley rat brain at 10 mg/kg, iv. The data set is classed as ADME, organism-based. Also noted: dose 10 mg/kg, route intravenous.
Data set [13] in a line: Fraction unbound in Sprague-Dawley rat brain at 10 mg/kg, iv. The data set is classed as ADME, organism-based. Also noted: dose 10 mg/kg, route intravenous.
Another data set relates to Brain. Briefly: Free drug level in Sprague-Dawley rat brain at 10 mg/kg, iv. The data set is classed as ADME, organism-based. Set-up: dose 10 mg/kg, route intravenous. To be noted: in vivo.
The next data set concerns the target hERG (KCNH2) (Homo sapiens, UniProt Q12809). Briefly: Inhibition of human ERG at 10 uM.
Data set [14] can be described thus: Kinetic aqueous solubility of the compound at pH 7.4 at 23 degC. The following applies: buffer, read-out: Kinetic_solubility. Format: physicochemical.
For data set [15], the system named is Rattus norvegicus. The data set can be described thus: Neuroprotective activity in transient middle cerebral artery occlusion Sprague-Dawley rat model assessed as reduction in brain infarct volume at 0.1 mg/kg, ip 3 times, starting 4 hrs after occlusion relative to vehicle treated control. Format: functional. The following applies: route intraperitoneal.
Data set [16] concerns Rattus norvegicus. The data set can be described thus: Neuroprotective activity in transient middle cerebral artery occlusion Sprague-Dawley rat model assessed as reduction in brain infarct volume at 1 mg/kg, ip 3 times, starting 4 hrs after occlusion relative to vehicle treated control. The data set is classed as functional. The following applies: route intraperitoneal.
The test system of data set [17] is Rattus norvegicus. Briefly: Neuroprotective activity in transient middle cerebral artery occlusion Sprague-Dawley rat model assessed as reduction in brain infarct volume at 10 mg/kg, ip 3 times, starting 4 hrs after occlusion relative to vehicle treated control. Format: functional. The following applies: route intraperitoneal.
The subject of data set [18] is Rattus norvegicus. Briefly: Neuroprotective activity in permanent middle cerebral artery occlusion Sprague-Dawley rat model assessed as reduction in brain infarct volume at 1 mg/kg, iv 3 times at 30 mins, 3.5 hrs and 6 hrs after occlusion relative to vehicle treated control. The data set is classed as functional.
Data set [19] is described as follows: Permeability of the compound by PAMPA. Format: physicochemical. The following applies: read-out: permeability.
The target of a further data set is Cytochrome P450 2D6 (Homo sapiens, UniProt P10635). Briefly: Inhibition of CYP2D6 (unknown origin). The data set is classed as ADME.
A short description of data set [20]: Half life in rat liver microsomes. Format: ADME. On the technique in general: Liver microsomes are vesicles of endoplasmic reticulum, rich in cytochrome P450 enzymes.
Data set [21] is described as follows: Half life in human liver microsomes. Format: ADME.

Structures are written as SMILES.

Poly [ADP-ribose] polymerase 2, sequence (O88554 whole entry): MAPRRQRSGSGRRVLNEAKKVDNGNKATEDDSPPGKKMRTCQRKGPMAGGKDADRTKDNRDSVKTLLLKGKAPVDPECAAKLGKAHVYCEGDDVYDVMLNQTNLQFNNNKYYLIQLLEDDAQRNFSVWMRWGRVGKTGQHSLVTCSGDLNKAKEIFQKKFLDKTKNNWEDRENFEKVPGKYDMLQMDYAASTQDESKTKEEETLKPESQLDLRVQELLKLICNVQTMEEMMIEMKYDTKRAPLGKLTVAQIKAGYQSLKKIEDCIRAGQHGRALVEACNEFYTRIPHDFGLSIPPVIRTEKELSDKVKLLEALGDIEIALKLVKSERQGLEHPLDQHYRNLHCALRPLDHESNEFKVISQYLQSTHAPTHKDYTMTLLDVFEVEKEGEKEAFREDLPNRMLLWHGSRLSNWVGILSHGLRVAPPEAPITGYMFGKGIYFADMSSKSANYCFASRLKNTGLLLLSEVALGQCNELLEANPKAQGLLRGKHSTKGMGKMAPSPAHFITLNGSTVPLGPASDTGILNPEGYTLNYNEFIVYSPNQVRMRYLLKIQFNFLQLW
T1 sequence (P09874 whole entry): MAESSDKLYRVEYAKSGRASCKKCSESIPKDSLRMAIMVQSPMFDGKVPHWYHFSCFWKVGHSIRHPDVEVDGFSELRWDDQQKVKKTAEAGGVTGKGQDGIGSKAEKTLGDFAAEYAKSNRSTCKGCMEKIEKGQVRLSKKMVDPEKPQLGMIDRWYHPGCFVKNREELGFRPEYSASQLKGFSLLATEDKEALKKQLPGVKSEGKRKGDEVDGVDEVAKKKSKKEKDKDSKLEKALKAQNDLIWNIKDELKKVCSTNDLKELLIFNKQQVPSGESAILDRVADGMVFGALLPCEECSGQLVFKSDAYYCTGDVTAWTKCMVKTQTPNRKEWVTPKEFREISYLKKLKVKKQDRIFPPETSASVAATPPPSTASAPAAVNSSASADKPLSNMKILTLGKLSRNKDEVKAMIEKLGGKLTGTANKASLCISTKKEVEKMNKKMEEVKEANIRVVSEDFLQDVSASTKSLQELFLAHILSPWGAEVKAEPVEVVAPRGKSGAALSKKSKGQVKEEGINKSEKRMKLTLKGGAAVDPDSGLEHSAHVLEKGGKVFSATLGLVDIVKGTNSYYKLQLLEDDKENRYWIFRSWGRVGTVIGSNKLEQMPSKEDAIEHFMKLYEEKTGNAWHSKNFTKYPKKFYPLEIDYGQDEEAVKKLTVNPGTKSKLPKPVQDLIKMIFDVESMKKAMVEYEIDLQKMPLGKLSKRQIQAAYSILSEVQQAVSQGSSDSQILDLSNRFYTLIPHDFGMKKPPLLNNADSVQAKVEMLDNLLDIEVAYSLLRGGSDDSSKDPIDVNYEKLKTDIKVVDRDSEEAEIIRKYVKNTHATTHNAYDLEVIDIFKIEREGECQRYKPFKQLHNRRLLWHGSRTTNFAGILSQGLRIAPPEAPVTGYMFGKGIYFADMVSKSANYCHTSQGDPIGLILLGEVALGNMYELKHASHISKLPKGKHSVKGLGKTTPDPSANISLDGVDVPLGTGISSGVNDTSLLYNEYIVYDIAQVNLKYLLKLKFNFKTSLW
hERG (KCNH2), sequence (Q12809 whole entry): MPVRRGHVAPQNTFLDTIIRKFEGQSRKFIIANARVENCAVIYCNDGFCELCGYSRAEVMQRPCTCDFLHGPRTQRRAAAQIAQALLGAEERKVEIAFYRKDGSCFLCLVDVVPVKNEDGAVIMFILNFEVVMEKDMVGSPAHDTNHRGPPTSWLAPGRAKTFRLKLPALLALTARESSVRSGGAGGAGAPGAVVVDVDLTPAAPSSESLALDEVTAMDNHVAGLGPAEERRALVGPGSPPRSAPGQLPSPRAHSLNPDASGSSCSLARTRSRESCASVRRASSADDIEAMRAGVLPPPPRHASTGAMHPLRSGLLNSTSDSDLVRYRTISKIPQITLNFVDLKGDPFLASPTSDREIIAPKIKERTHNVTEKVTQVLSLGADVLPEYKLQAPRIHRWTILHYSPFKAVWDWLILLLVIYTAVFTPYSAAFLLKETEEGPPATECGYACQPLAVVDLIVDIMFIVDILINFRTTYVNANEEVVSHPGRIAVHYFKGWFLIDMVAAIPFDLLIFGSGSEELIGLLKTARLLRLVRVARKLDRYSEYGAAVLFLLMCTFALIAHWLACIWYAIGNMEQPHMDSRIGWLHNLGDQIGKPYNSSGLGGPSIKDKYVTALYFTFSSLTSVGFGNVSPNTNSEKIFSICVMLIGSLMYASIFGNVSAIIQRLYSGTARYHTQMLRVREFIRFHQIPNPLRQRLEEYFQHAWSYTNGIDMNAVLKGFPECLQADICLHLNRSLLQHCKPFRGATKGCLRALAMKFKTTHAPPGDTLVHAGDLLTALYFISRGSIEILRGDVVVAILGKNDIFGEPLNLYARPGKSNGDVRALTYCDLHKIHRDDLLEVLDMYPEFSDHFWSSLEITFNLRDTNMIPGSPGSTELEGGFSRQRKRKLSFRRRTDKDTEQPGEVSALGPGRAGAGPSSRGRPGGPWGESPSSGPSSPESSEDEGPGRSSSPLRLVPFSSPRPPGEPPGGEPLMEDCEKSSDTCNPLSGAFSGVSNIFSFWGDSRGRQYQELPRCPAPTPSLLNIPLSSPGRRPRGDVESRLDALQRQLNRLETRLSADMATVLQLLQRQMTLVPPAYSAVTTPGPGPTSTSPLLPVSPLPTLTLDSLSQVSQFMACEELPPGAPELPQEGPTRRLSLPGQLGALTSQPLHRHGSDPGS
Cytochrome P450 2D6, sequence (P10635 whole entry): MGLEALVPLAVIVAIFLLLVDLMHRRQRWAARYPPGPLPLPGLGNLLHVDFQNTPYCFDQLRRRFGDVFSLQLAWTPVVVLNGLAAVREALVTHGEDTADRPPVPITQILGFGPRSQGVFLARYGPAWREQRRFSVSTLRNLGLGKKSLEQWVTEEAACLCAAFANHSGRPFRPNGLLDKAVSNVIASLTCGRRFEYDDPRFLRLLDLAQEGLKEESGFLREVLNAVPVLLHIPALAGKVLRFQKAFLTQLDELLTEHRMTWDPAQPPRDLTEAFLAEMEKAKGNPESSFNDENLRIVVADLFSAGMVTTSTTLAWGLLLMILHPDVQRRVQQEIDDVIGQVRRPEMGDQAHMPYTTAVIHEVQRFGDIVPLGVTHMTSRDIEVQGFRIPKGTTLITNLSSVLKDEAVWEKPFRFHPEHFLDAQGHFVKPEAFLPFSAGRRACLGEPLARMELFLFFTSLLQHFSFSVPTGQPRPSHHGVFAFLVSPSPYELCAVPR

In general, EC50 refers to the concentration giving half of the maximal effect. As to `O=c1[nH]c2ccccc2c2ccccc12`, the values for the EC50 (in data set [1]; in the data set on Cortical neurone) were 0.945 µM and 2.37 µM, respectively.

The term IC50 denotes the concentration that gives 50% inhibition. `CN(C)Cc1cc2c([nH]c(=O)c3ccccc32)s1`: the figures for the IC50 in [2], in data set [3] and in data set [4] were 0.18 µM, 0.3 µM and more than 100 µM, respectively.

By clearance is commonly meant the rate of elimination divided by the concentration. In general, Vd refers to a proportionality between amount in the body and measured concentration, not a real space. A word on the AUC(0-inf): it is the area under the concentration-time curve extrapolated to infinity. In general, half-life refers to the time in which the quantity being followed falls by half. For orientation: Cmax means the highest concentration seen after dosing. A word on the fraction unbound: it is free concentration divided by total concentration. The inhibition is the share of the control response that was lost under treatment. The inhibition in vivo is the drop in the measured response relative to a control, in per cent. As to `Br.CN(C)Cc1cc2c([nH]c(=O)c3cccc(O)c32)s1`, the values for the hepatocyte CLint in data set [5] and in data set [6] were 26.4 µL/min/1e6 cells and 22.2 µL/min/1e6 cells, respectively. Moreover, the clearance with Rattus norvegicus [7] turned out to be 69 mL/min/kg. Moreover, the Vd in data set [8] came to 2.1 L/kg. In data set [9], this compound had an AUC(0-inf) of 1680 ng·h/mL. The half-life was 48 min in data set [10], 3 min in data set [20] and 30 min in data set [21]. Moreover, in [11], the Kp stood at 0.26. For the same compound, the peak level in data set [12] (Cmax) was 678 nM. The fraction unbound in data set [13] stood at 0.13. Besides, the “Drug uptake(free)” value in the data set with Brain is on record as 87 nM. Besides, the inhibition at 10 µM on hERG (KCNH2) was found to be 14%. Further, the IC50 in [2] is 0.029 µM; in data set [3], 0.038 µM; in data set [4], more than 100 µM; against Cytochrome P450 2D6, 170 µM. The EC50 in [1] turned out to be 0.014 µM; with Cortical neurone it was 0.3 µM. In [14], the solubility kinetic amounted to 70 µg/mL. In the data set with Rattus norvegicus [15], the inhibition in vivo at 0.1 mg/kg stood at 17.5%. For the same compound, the inhibition in vivo at 1 mg/kg with Rattus norvegicus [16] came out at 55%; with Rattus norvegicus [18], 42%. For the same compound, in the data set on Rattus norvegicus [17], the inhibition in vivo at 10 mg/kg worked out at 62%. Besides, in data set [19], the Papp stood at 4.6 ×10⁻⁶ cm/s.

As to `O=c1[nH]c2sccc2c2ccccc12`, the IC50 stood at 0.9 µM in data set [2] and 0.6 µM in data set [3]. In data set [14], the solubility kinetic is less than 100 µg/mL.
